According to patent US6143493A, “HCMV-specific peptides, agents therefor and the use thereof” (Dade Behring Marburg GmbH, priority 1991, dated 2000):

B1: XP1: recombinant protein section, amino acid 718-880 of HCMV protein pp150 (protein)
chain: DPRFTDTLVDITDTETSAKPPVTTAYKFEQPTLTFGAGVNVPAGAGAAILTPTPVNPSTAPAPAPTPTFAGTQTPVNGNSPWAPTAPLPGDMNPANWPRERAWALKNPHLAYNPFRMPTTSTASQNTVSTTPRRPSTPRAAVTQTASRDAADEVWALRDQTA
B2: pp150: HCMV protein pp150 (protein, UniProt P08318 1-1048, looked up)
Large structural …: MSLQFIGLQRRDVVALVNFLRHLTQKPDVDLEAHPKILKKCGEKRLHRRTVLFNELMLWLGYYRELRFHNPDLSSVLEEFEVRCVAVARRGYTYPFGDRGKARDHLAVLDRTEFDTDVRHDAEIVERALVSAVILAKMSVRETLVTAIGQTEPIAFVHLKDTEVQRIEENLEGVRRNMFCVKPLDLNLDRHANTALVNAVNKLVYTGRLIMNVRRSWEELERKCLARIQERCKLLVKELRMCLSFDSNYCRNILKHAVENGDSADTLLELLIEDFDIYVDSFPQSAHTFLGARSPSLEFDDDANLLSLGGGSAFSSVPKKHVPTQPLDGWSWIASPWKGHKPFRFEAHGSLAPAAEAHAARSAAVGYYDEEEKRRERQKRVDDEVVQREKQQLKAWEERQQNLQQRQQQPPPPARKPSASRRLFGSSADEDDDDDDDEKNIFTPIKKPGTSGKGAASGGGVSSIFSGLLSSGSQKPTSGPLNIPQQQQRHAAFSLVSPQVTKASPGRVRRDSAWDVRPLTETRGDLFSGDEDSDSSDGYPPNRQDPRFTDTLVDITDTETSAKPPVTTAYKFEQPTLTFGAGVNVPAGAGAAILTPTPVNPSTAPAPAPTPTFAGTQTPVNGNSPWAPTAPLPGDMNPANWPRERAWALKNPHLAYNPFRMPTTSTASQNTVSTTPRRPSTPRAAVTQTASRDAADEVWALRDQTAESPVEDSEEEDDDSSDTGSVVSLGHTTPSSDYNNDVISPPSQTPEQSTPSRIRKAKLSSPMTTTSTSQKPVLGKRVATPHASARAQTVTSTPVQGRLEKQVSGTPSTVPATLLQPQPASSKTTSSRNVTSGAGTSSASSARQPSASASVLSPTEDDVVSPATSPLSMLSSASPSPAKSAPPSPVKGRGSRVGVPSLKPTLGGKAVVGRPPSVPVSGSAPGRLSGSSRAASTTPTYPAVTTVYPPSSTAKSSVSNAPPVASPSILKPGASAALQSRRSTGTAAVGSPVKSTTGMKTVAFDLSSPQKSGTGPQPGSAGMGGAKTPSDAVQNILQKIEKIKNTEE

What was measured:
[1] = test system: CMV IgG-positive sera; experiment: ELISA on peptide-coated microtiter plates with HCMV-positive human sera (localization of epitopes); assay type: binding; settings: plates coated with 2.5 μg peptide per ml, serum 1:2; for Reactivity (individual reactivities of the synthetic pXP1 segments with the assayed group of CMV IgG-positive sera): Table 2; for Reactivity (individual reactivities of particularly reactive peptides with the assayed group of CMV IgG-positive sera): Table 3
Protocol: A microtiter plate with 96 wells was coated with a synthesized peptide. To do this, a solution of 2.5 μg of peptide per ml of carbonate buffer was made up and introduced in 100 μl portions into the wells for the coating. The peptides were adsorbed onto the surfaces at 4° C. overnight and, after removal of the peptide solution, the wells were washed several times with washing buffer (50 mM Tris, pH 7.2, 10 mM EDTA, 0.2% Tween 20). Then individual human serum samples in a 1:2 dilution were introduced and incubated at 37° C. for 1 hour. After another washing step, the conjugate antibody specific for human IgG antibodies or human IgM antibodies and labeled with peroxidase was added and the mixture was incubated at room temperature for 0.5 hour. The reaction was subsequently stopped by adding 0.5 M sulfuric acid and extinction of the individual samples was measured at a wavelength of 450/650 nm in a photometer.
To test the immunogenicity, peptides of various length from the complete amino-acid sequence region from 718 to 880 of the HCMV protein pp150 (Tab. 2 and 3) were synthesized as described in Example 1. Subsequently, as in Example 2, the microtiter plates were coated with the synthesized peptides, and the immunological reactivity was assayed. […] The three immunologically reactive peptides have the following sequences: […]

[2] = test system: monoclonal antibody 87-55/02; experiment: Reaction of monoclonal antibody 87-55/02 with peptide-coated ELISA plate; assay type: binding; settings: immunoblot and ELISA reactivity
From the text: It was concluded from the method for selecting the monoclonal antibody that the identified epitope must have a very important structure which is not even destroyed by denaturation of the complete protein. This monoclonal antibody correspondingly reacts both with the synthesized peptide 2.7 (SEQ ID NO:26) and with the recombinant protein XP1 (SEQ ID NO:33) and the pp150 protein of HCMV.

Row | Molecule | Reactivity (individual reactivities of the synthetic pXP1 segments with the assayed group of CMV IgG-positive sera) [1] [%] | Reactivity (individual reactivities of particularly reactive peptides with the assayed group of CMV IgG-positive sera) [1] [%] | reaction with monoclonal antibody 87-55/02 [2]
1 | ala ser arg asp ala ala asp glu val trp ala leu arg asp gln thr ala (ASRDAADEVWALRDQTA) [Peptide 3.2] | 80 | 80 | –
2 | ala tyr lys phe glu gln pro thr leu thr phe gly ala gly val asn val pro ala gly ala gly ala ala ile leu thr pro thr pro val asn pro ser thr ala pro ala pro ala pro (AYKFGQPTLTFGAGVNVPAGAGAAILTPTPVNPSTAPAPAP) [Peptide 1.13] | – | 90 | –
3 | arg ala trp ala leu lys asn pro his leu ala tyr asn pro phe (RAWALKNPHLAYNPF) [Peptide 2.10] | 80 | 80 | –
4 | phe glu gln pro thr leu thr phe gly ala gly val asn val pro ala gly ala gly ala ala ile leu thr pro thr pro val asn pro ser thr ala pro ala pro ala (FEQPTLTFGAGVNVPAGAGAAILTPTPVNPSTAPAPA) [Peptide 1.4] | – | 90 | –
5 | pro ala gly ala gly ala ala ile leu thr pro thr pro val asn pro ser thr ala pro ala pro ala pro thr pro thr phe ala gly thr (PAGAGAAILTPTPVNPSTAPAPAPTPTFAGT) [Peptide 1.10] | – | 80 | –
6 | pro arg ala ala val thr gln thr ala ser arg asp ala ala (PRAAVTQTASRDAA) [Peptide 3.1] | 60 | 60 | –
7 | B1 | – | – | reacts
8 | B2 | – | – | reacts
